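Results reflect a 48-hour exposure of cells in 96-well plates to compound at five concentrations. GI50: concentration for 50% inhibition of growth. The concentration for full growth arrest is given as TGI.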
Assays:
Assay in all cases: NCI anticancer screen, dose series, 48 h
[1] = tested on: BT-549 breast
[2] = tested on: EKVX NSCLC
[3] = tested on: HS 578T breast
[4] = tested on: OVCAR-3 ovarian
[5] = tested on: OVCAR-8 ovarian
[6] = tested on: PC-3 prostate
[7] = tested on: SF-268 CNS
[8] = tested on: SF-539 CNS
[9] = tested on: SN12C renal
[10] = tested on: TK-10 renal

Compound | GI50 [1] | TGI [1] | GI50 [2] | TGI [2] | GI50 [3] | TGI [3] | GI50 [4] | TGI [4] | GI50 [5] | TGI [5] | GI50 [6] | TGI [6] | GI50 [7] | TGI [7] | GI50 [8] | TGI [8] | GI50 [9] | TGI [9] | GI50 [10] | TGI [10]
CC(=O)OCC1OC(OC2C(COC(C)=O)OC(OCCC[S-])C(OC(C)=O)C2OC(C)=O)C(OC(C)=O)C(OC(C)=O)C1OC(C)=O.[Au+].c1ccc(CN2[CH-]N(Cc3ccccc3)C(c3ccccc3)=C2c2ccccc2)cc1 (centres undefined) | 3.37 µM | 14.8 µM | 3.15 µM | 15.9 µM | 9.16 µM | 87.7 µM | 2.62 µM | 8.48 µM | 3.75 µM | > 100 µM | 3.28 µM | 15 µM | 5.2 µM | 24.9 µM | 4.46 µM | 17.6 µM | 3.32 µM | 15 µM | 3.57 µM | 14.8 µM
C/C(=C\c1ccc(Cl)cc1)C(C)(C)C(=O)O | – | > 100 µM | – | > 100 µM | – | > 100 µM | – | > 100 µM | – | > 100 µM | – | > 100 µM | – | > 100 µM | – | > 100 µM | – | > 100 µM | – | > 100 µM
COc1ccccc1/C=C\c1cnnc2ccccc12 | – | > 10 µM | – | > 10 µM | – | > 10 µM | – | > 10 µM | – | > 10 µM | – | > 10 µM | – | > 10 µM | – | > 10 µM | – | > 10 µM | – | > 10 µM
COc1ccc(OC)c(-c2nc3sccn3c2/C=C2/C(=O)Nc3ccc(Cl)cc32)c1 | 24.2 µM | 74.3 µM | 36.1 µM | > 100 µM | 15.6 µM | 53.5 µM | 21.7 µM | 55.2 µM | 34.4 µM | > 100 µM | 27.2 µM | > 100 µM | 30.6 µM | > 100 µM | 24.3 µM | 60.9 µM | 35.2 µM | > 100 µM | 29.9 µM | > 100 µM
CC1(C)CCC[C@]23C(=O)O[C@](O)(C(=O)C4=C[C@@](C)(/C=C/CCCc5ccc6ccc7cccc8ccc5c6c78)CC[C@@]42O)[C@@H]13 | 0.141 µM | 0.282 µM | 0.216 µM | 0.485 µM | 0.251 µM | 0.812 µM | 0.174 µM | 0.336 µM | 0.25 µM | 1.15 µM | 0.166 µM | 0.378 µM | 0.208 µM | 0.498 µM | 0.17 µM | 0.322 µM | 0.164 µM | 0.339 µM | 0.196 µM | 0.423 µM
CCSc1oc(-c2ccccc2)nc1[P+](c1ccccc1)(c1ccccc1)c1ccccc1 | 0.281 µM | 1.68 µM | 0.289 µM | 1.84 µM | 0.314 µM | 2.72 µM | 0.268 µM | 1.7 µM | 0.275 µM | 12.3 µM | 0.213 µM | 1.44 µM | 0.331 µM | 4.02 µM | 0.376 µM | 2.85 µM | 0.298 µM | 1.23 µM | 0.258 µM | 2.66 µM
O=C1c2ccccc2C(=O)c2c1ccc(C(Br)Br)c2[N+](=O)[O-] | 2.51 µM | 8.3 µM | 1.96 µM | 4.58 µM | 2.28 µM | 6.75 µM | 1.63 µM | 3.04 µM | 1.95 µM | 4.35 µM | 1.74 µM | 3.47 µM | 1.57 µM | 3.17 µM | 1.76 µM | 3.41 µM | 1.83 µM | 3.86 µM | 1.95 µM | 3.84 µM
COc1ccc(-c2ccc3c(NC(=O)C4CC4)n[nH]c3n2)cc1 | > 14.3 µM | > 25 µM | > 25 µM | > 25 µM | 23.6 µM | > 25 µM | > 25 µM | > 25 µM | 11.7 µM | > 25 µM | > 25 µM | > 25 µM | 11.5 µM | > 25 µM | > 25 µM | > 25 µM | > 25 µM | > 25 µM | > 25 µM | > 25 µM
C=C(CN1CCN(c2ccccc2OC)CC1)c1ccc(C(=O)Nc2ccccc2N)cc1 | 7.12 µM | 26.9 µM | 10.6 µM | > 50 µM | 3.58 µM | > 50 µM | 5.64 µM | 19.7 µM | 9.28 µM | 32.4 µM | 9.64 µM | > 50 µM | 12.2 µM | 36 µM | 2.18 µM | 23.7 µM | 0.0129 µM | 0.0874 µM | 1.2 µM | 9.07 µM
O=C(O)c1c(O)c2cc(Br)ccc2oc1=O | – | > 100 µM | – | > 100 µM | – | > 100 µM | – | > 100 µM | – | > 100 µM | – | > 100 µM | – | > 100 µM | – | > 100 µM | – | > 100 µM | – | > 100 µM
CC(CN=C(CC(=O)c1ccc(Br)cc1)c1ccccc1)N=C(CC(=O)c1ccc(Br)cc1)c1ccccc1 (centres undefined) | 42.1 µM | > 100 µM | 21 µM | > 100 µM | > 100 µM | > 100 µM | – | 14.7 µM | 34.6 µM | > 100 µM | 29.4 µM | > 100 µM | 29.9 µM | > 100 µM | > 100 µM | > 100 µM | 64.1 µM | > 100 µM | 7.56 µM | > 100 µM
O=C1c2ccccc2C(=O)c2c(NCCCNCCO)ccc(NCCCNCCO)c21 | – | 30.7 µM | – | 26.3 µM | – | 34.4 µM | – | 27.3 µM | – | 31 µM | – | 22.6 µM | – | 17.9 µM | – | 15.3 µM | – | 14.4 µM | – | 40.6 µM
COc1cc(C)c(C(=O)O[C@H]2[C@H](O[C@H]3[C@@H](O)COC(O[C@H]4C[C@H]5[C@@H]6CC=C7C[C@@H](O)CC[C@]7(C)[C@H]6CC[C@]5(C)[C@H]4[C@H](C)C(=O)CCC(C)C)[C@@H]3OC(C)=O)OC[C@@H](O)[C@@H]2O)c(C)c1 (some centres undefined) | < 0.01 µM | 5.5 µM | 1.06 µM | 15.1 µM | < 0.01 µM | 0.161 µM | 2.77 µM | 22 µM | 10.3 µM | > 100 µM | < 0.01 µM | 2.4 µM | < 0.01 µM | 2.92 µM | < 0.01 µM | 0.0137 µM | 10 µM | 25.6 µM | 0.704 µM | 16.6 µM

— PubChem BioAssay (NCI)
